Each structure is given as a SMILES string.

On to `*Oc1ccc(Cc2ccc(Oc3c(F)c(F)c(COC(C4CCCC(C(OCc5c(F)c(F)c(*)c(F)c5F)(C(F)(F)F)C(F)(F)F)C4)(C(F)(F)F)C(F)(F)F)c(F)c3F)cc2)cc1` (repeat unit), for which the CH4 permeability was determined as 0.33 Barrer, the CO2 permeability stood at 7.6 Barrer, the H2 permeability stood at 18 Barrer and the N2 permeability was found to be 0.55 Barrer. Further, the O2 permeability amounted to 2.3 Barrer.
The compound `*c1ccc(Cc2ccc(N3C(=O)c4ccc(C(c5ccc6c(c5)C(=O)N(*)C6=O)(C(F)(F)F)C(F)(F)F)cc4C3=O)c(C)c2)cc1C` (repeat unit) came in with a CH4 permeability of 0.198 Barrer, a CO2 permeability of 8.75 Barrer, an N2 permeability of 0.406 Barrer and an O2 permeability of 2.51 Barrer.
The compound `*c1c(C)c(C)c(-n2c(=O)c3cc4oc5cc6c(cc5oc4cc3c2=O)C2(CC(C)(C)c3cc4oc5cc7c(=O)n(*)c(=O)c7cc5oc4cc32)CC6(C)C)c(C)c1C` (repeat unit) gave a CH4 permeability of 77 Barrer, a CO2 permeability of 1100 Barrer, an H2 permeability of 530 Barrer and an N2 permeability of 47 Barrer. Moreover, the O2 permeability came to 150 Barrer.
`*c1cc(C(c2ccc(O)c(N3C(=O)c4ccc(C(c5ccc6c(c5)C(=O)N(*)C6=O)(C(F)(F)F)C(F)(F)F)cc4C3=O)c2)(C(F)(F)F)C(F)(F)F)ccc1O` (repeat unit): the CH4 permeability amounted to 0.08 Barrer, the CO2 permeability came to 9.9 Barrer, the H2 permeability stood at 35 Barrer and the N2 permeability is 0.4 Barrer. The same compound showed an O2 permeability of 2.6 Barrer.
As for `*Oc1c(C)cc(C(C)(C)c2cc(C)c(OC(=O)c3cc(C(*)=O)cc(C(C)(C)C)c3)c(Br)c2)cc1Br` (repeat unit), the CH4 permeability stood at 1.06 Barrer, the CO2 permeability amounted to 22.7 Barrer, the N2 permeability came to 1.06 Barrer and the O2 permeability came to 6.27 Barrer.
For `*c1c(C)c2c(c(N3C(=O)c4ccc(C(c5ccc6c(c5)C(=O)N(*)C6=O)(C(F)(F)F)C(F)(F)F)cc4C3=O)c1C)C(C)(C)CC2` (repeat unit), the CH4 permeability is 50.5 Barrer, the CO2 permeability turned out to be 692 Barrer, the N2 permeability was 58.6 Barrer and the O2 permeability worked out at 198 Barrer.
In turn, `*Nc1ccc(*)cc1` (repeat unit) yielded a CH4 permeability of 0.0094 Barrer, a CO2 permeability of 0.67 Barrer, an H2 permeability of 3.66 Barrer and an N2 permeability of 0.0165 Barrer. The compound also came in with an O2 permeability of 0.135 Barrer.
For `*Oc1ccc(C(C)(C)c2ccc(OCCC(*)O)cc2)cc1` (repeat unit), the CH4 permeability came out at 0.02 Barrer, the CO2 permeability was determined as 0.5 Barrer, the N2 permeability was 0.019 Barrer and the O2 permeability amounted to 0.09 Barrer.
Regarding `*c1ccc(-c2ccc(N3C(=O)c4ccc(-c5ccc6c(c5)C(=O)N(*)C6=O)cc4C3=O)c(O)c2)cc1O` (repeat unit), the CH4 permeability turned out to be 0.00041 Barrer, the CO2 permeability is 0.0313 Barrer, the N2 permeability is 0.001 Barrer and the O2 permeability stood at 0.0096 Barrer.
Regarding `*c1c(C)cc(C)c(N2C(=O)c3ccc(S(=O)(=O)c4ccc5c(c4)C(=O)N(*)C5=O)cc3C2=O)c1C` (repeat unit), the H2 permeability was 47.1 Barrer, the N2 permeability came to 1.02 Barrer and the O2 permeability is 5.69 Barrer.
`*CC(*)OC(=O)c1ccccc1` (repeat unit) had a CO2 permeability of 6.32 Barrer.
As for `*=CC1CC(C=*)C2C1C([Si](O[Si](C)(C)C)(O[Si](C)(C)C)O[Si](C)(C)C)C2[Si](O[Si](C)(C)C)(O[Si](C)(C)C)O[Si](C)(C)C` (repeat unit), the CH4 permeability was determined as 300 Barrer, the CO2 permeability was 1160 Barrer, the H2 permeability stood at 690 Barrer and the N2 permeability amounted to 100 Barrer. In addition, the O2 permeability was found to be 295 Barrer.
`*C/C=C\C*` (repeat unit) returned a CO2 permeability of 138 Barrer, an H2 permeability of 41.9 Barrer, an N2 permeability of 15.8 Barrer and an O2 permeability of 19 Barrer.
In turn, `*c1ccc(Cc2ccc(N3C(=O)c4ccc(C(c5ccc6c(c5)C(=O)N(*)C6=O)(C(F)(F)F)C(F)(F)F)cc4C3=O)cc2)cc1` (repeat unit) displayed a CH4 permeability of 0.344 Barrer, a CO2 permeability of 15.2 Barrer, an H2 permeability of 44.7 Barrer and an N2 permeability of 0.686 Barrer. Moreover, the O2 permeability came to 3.88 Barrer.
Take `*c1cc2c(cc1C)-c1cc(C)c(N3C(=O)c4cc5c(cc4C3=O)S(=O)(=O)c3cc4c(cc3S5(=O)=O)C(=O)N(*)C4=O)cc1S2(=O)=O` (repeat unit): the CH4 permeability was determined as 0.59 Barrer, the CO2 permeability is 24 Barrer and the N2 permeability is 0.7 Barrer.

The values are drawn from a polymer gas permeability compilation.
